The conditions of the data set: 101.33 kPa, Liquid, Pycnometric method.

Numbers after ± are expanded uncertainties.

Regarding `COCC(C)OC(C)=O` (configuration not stated) [1-methoxy-2-propyl acetate], the mass density is, setting by setting: (273.15 K) 989.2 ± 4.4 kg/m3; (283.15 K) 978.2 ± 4.3 kg/m3.

Take `CCOCCOCCOC(C)=O` [2-(2-ethoxyethoxy)ethyl acetate]: the mass density is 1030 ± 5.9 kg/m3 (273.15 K) and 1020 ± 5.8 kg/m3 (283.15 K).

Regarding `CCCCOCCOC(C)=O` [2-butoxyethyl acetate], the mass density (273.15 K) came to 960.4 ± 5.5 kg/m3 and the mass density (283.15 K) came out at 950.4 ± 5.4 kg/m3.

Take `COCCOC(C)=O` [2-methoxyethyl ethanoate]: the mass density turned out to be 1027.8 ± 5.8 kg/m3 (273.15 K) and 1016.8 ± 5.8 kg/m3 (283.15 K).

Regarding `COC(C)CCOC(C)=O` (configuration not stated) [3-methoxybutyl acetate], the mass density is, setting by setting: (273.15 K) 975.3 ± 4.3 kg/m3; (283.15 K) 965.3 ± 4.3 kg/m3.

For `CCOCCOCCOCC` [diethylene glycol diethyl ether], the mass density is, setting by setting: (273.15 K) 926.4 ± 4.1 kg/m3; (283.15 K) 916.3 ± 4 kg/m3.

(Values after the NIST ThermoML archive (doi:10.1016/j.jct.2018.03.009).)
